# Data published in US20110184034A1, “Severe sepsis preventive therapeutic agent” (priority 2002, published 2011).
# Assays:
# [1] = test system: TNF-α production, mouse macrophage cell line RAW264.7; assay: TNF-α production by β-amyloid peptide (1-40) in RAW264.7; type: cell-based; conditions: β-amyloid peptide (1-40) 10 μM + interferon-γ 10 U/mL
# Method: (§1) On the previous day of the experiment, the cells were suspended in RPMI-1640 medium supplemented with 10% inactivated fetal calf serum to 5×10^5 cells/mL and inoculated to a 96-well microplate at 0.2 mL/well. After incubation at 37° C. under 5% CO2/95% air overnight, the medium was changed to an RPMI-1640 medium supplemented with 1% inactivated fetal calf serum, a test substance and β-amyloid peptide (1-40) (final concentration 10 μM) and interferon-γ (final concentration 10 U/mL) were added. After further incubation overnight, the concentrations of tumor necrosis factor-α (TNF-α) and IL-6 in culture supernatants were measured using an enzyme immunoassay kit manufactured by Amersham. The test substance was dissolved at 10 mM in N,N-dimethylformamide and diluted with an RPMI-1640 medium supplemented with 1%, inactivated fetal calf serum to the concentration of 0.1 mM, then diluted with a medium to a 10-fold concentration of the final concentration and 1/10 was added.
# [2] = test system: IL-6 production, mouse macrophage cell line RAW264.7; assay: IL-6 production by β-amyloid peptide (1-40) in RAW264.7; type: cell-based; conditions: β-amyloid peptide (1-40) 10 μM + interferon-γ 10 U/mL
# Method: as §1
# [3] = test system: E. coli O111 inoculated galactosamine-loaded female BALB/c mice; assay: Galactosamine loaded mouse Escherichia coli inoculated lethal model, survival; type: in vivo; conditions: E. coli O111 5.9×10^5 CFU i.p. with galactosamine 1 g/kg; test substance 30 mg/kg orally at 1 hr after bacterial inoculation; observed 6 days
# Method: Since sepsis is a systemic inflammatory response caused by infection, the effect of a test substance (Reference Example B26) by administration after bacterial inoculation in infection model was studied. […] The test substance was suspended in 0.5% aqueous methyl cellulose solution, and orally administered (30 mg/kg) immediately, 30 min and 1, 2 and 4 hr after the bacterial inoculation. The solvent was orally administered to the control group immediately after the bacterial inoculation.
# In other words, the test substance can be expected to show effect of improving the state of severe sepsis complicated with organ dysfunction.
# [4] = test system: TLR9 signal (CPG), mouse macrophage cell line RAW264.7; assay: NO production by TLR9 selective agonist CpG oligoDNA (CPG) in RAW264.7; type: cell-based; conditions: RAW264.7, CpG oligoDNA 75 nmol/L + interferon-γ 0.1 ng/mL, nitrite ion
# Method: (§2) Using mouse macrophage cell line RAW264.7, the suppressive effect of the test substance on cytokine production by a TLR selective agonist was investigated. On the previous day of the experiment, the cells were suspended in RPMI-1640 medium supplemented with 10% inactivated fetal calf serum to 5×10^5 cells/mL and inoculated to a 96-well microplate at 0.2 mL/well. After incubation at 37° C. under an atmosphere of 5% CO2/95% air overnight, the medium was changed to an RPMI-1640 medium supplemented with 1% inactivated fetal calf serum, and a test substance, various TLR agonists and interferon-γ (final concentration 0.1 ng/mL) were added. After further incubation overnight, the concentration of nitrite ion (stable metabolite of NO) in the culture supernatant was quantified by fluorescence method using 2,3-dimaminonaphthalene. As the TLR4 selective agonist, LPS was added, as the TLR2 selective agonist, peptide glycan (PGN) was added, and as the TLR9 selective agonist, CpG oligoDNA (CPG) was added, to the final concentrations of 5 ng/mL, 1 μg/mL and 75 nmol/L, respectively. In addition, the test substance was dissolved at 10 mM in N,N-dimethylformamide, diluted with an RPMI-1640 medium supplemented with 1% inactivated fetal calf serum to the concentration of 0.1 mM, then diluted with a medium to a 10-fold concentration of the final concentration and 1/10 was added.
# [5] = test system: TLR4 signal (LPS), mouse macrophage cell line RAW264.7; assay: NO production by TLR4 selective agonist LPS in RAW264.7; type: cell-based; conditions: RAW264.7, LPS 5 ng/mL + interferon-γ 0.1 ng/mL, nitrite ion
# Method: as §2
# [6] = test system: TLR2 signal (PGN), mouse macrophage cell line RAW264.7; assay: NO production by TLR2 selective agonist peptide glycan (PGN) in RAW264.7; type: cell-based; conditions: RAW264.7, PGN 1 μg/mL + interferon-γ 0.1 ng/mL, nitrite ion
# Method: as §2
# [7] = test system: LPS-inoculated female BALB/c mice; assay: Effect by administration after LPS inoculation in endotoxin shock model (2), survival; type: in vivo, mouse; conditions: LPS 4 mg/kg i.p.; test substance 10 mg/kg i.v. (soybean oil emulsion) at 4 hr after LPS inoculation; observed 5 days
# Method: To investigate the treatment effect during the process toward an advanced degree after the onset of sepsis, the effect of a test substance (Reference Example B66) by administration after LPS inoculation in an endotoxin shock model was investigated. […] The test substance was prepared into an emulsified liquid of a soybean oil, and intravenously administered (10 mg/kg) immediately after, 1, 2, 4 and 6 hr after LPS inoculation. An emulsified liquid without a drug was intravenously administered to the control group immediately after LPS inoculation.
# [8] = test system: female CBA/J mice, DSS induced colitis; assay: Dextran sulfate induced colitis model; type: in vivo, mouse; conditions: for BW (%) / Hb / Ht (%) / RBC / WBC: means ± SE of six mice; for GBS (%) (grossly bloody stool): six mice
# Method: A 5% dextran sulfate (DSS) solution was placed in a water feeder to allow free drinking by female CBA/J mice (8 w) for 5 days, the solution was changed to 1% DSS solution on day 6 to allow free drinking for 7 days. The drug (Reference Example B3) (10-30 mg/kg) was suspended in 0.5% methyl cellulose (MC), and orally administered from day 6 under 1% DSS solution drinking once a day for 7 days. After 12 days of drinking DSS, the body weight was measured and stool was observed (grossly bloody stool: GBS). Blood was drawn and white blood count (WBC), red blood count (RBC), hemoglobin concentration (Hb) and hematocrit value (Ht) were measured by using an automatic cell counter (Sysmex).
# [9] = test system: male Sprague-Dawley rats, balloon-injured carotid artery; assay: Rat balloon injury model, vascular thickening (DNA content of carotid artery); type: in vivo; conditions: 30 and 100 mg/kg/d i.p. once a day, 2 weeks
# Method: Using male Sprague-Dawley rats, the neck was incised under sodium pentobarbital (45 mg/kg ip) anesthesia to expose left carotid artery. A Forgaty catheter (2F, manufactured by Baxtar) was inserted from the […] to a bifurcation area of internal and external carotid arteries of left carotid artery, a balloon was blown and abraded to the aortic arch bifurcation. This operation was repeated three times to injure the common carotid artery. After the injury, the catheter was extracted, the incision was sutured, and the rats were individually bred in ordinary breeding cages. After 2 weeks from the injury, the rats were exsanguinated under anesthesia, and the left (injured) side and the right (non-injured) side of carotid arteries were removed by 5 mm on the heart side, at 5 mm from the internal and external carotid artery bifurcation area, and the DNA content was measured. The drug (Reference Example B3) was suspended in 0.5% methyl cellulose, and intraperitoneally administered once a day from the day of balloon injury operation to carotid artery enucleation. When balloon injury operation was performed, the drug was administered 30 min before anesthesia and the balloon injury was produced.
# [10] = test system: male DBA/1 mice, type II collagen induced arthritis; assay: Collagen induced arthritis model; type: in vivo, mouse; conditions: for Arthritis incidence (%) / Arthritis index: 30 mg/kg orally once a day from collagen immunization
# Method: Bovine-derived type II collagen was dissolved in 0.050 acetic acid solution, and an equivalent amount of Freund's complete adjuvant was mixed therewith to give an emulsion. The collagen emulsion was administered intracutaneously into the tail head of male DBA/1 mice (6W) (n=10-12) at 100 μg/0.1 mL to induce arthritis. The levels of flare and edema of four limbs were visually observed during the progress thereof. The drug (Reference Example B3) (30 mg/kg) was suspended in 0.5% MC, and orally administered once a day from collagen immunization for 8 weeks (except Sundays). The onset of arthritis was evaluated every week, and the rate of onset was expressed by (number of limbs having arthritis/number of limbs of mice in one group×100). As indices of arthritis, for each limb, no change was 0, swelling of one finger or plural fingers was 1, flare and swelling seen in the entirety was 2, strong swelling seen in the entirety was 3, crampus tonicus of joint was 4, and the total of four limbs was 16, and arthritis was expressed in (total of all scores of onset mice/number of limbs of mice in one group), wherein 4 was the highest value for one limb.
# [11] = test system: LPS-inoculated female BALB/c mice; assay: Effect by administration after LPS inoculation in endotoxin shock model (1), survival; type: in vivo, mouse; conditions: LPS 10 mg/kg i.p.; test substance 30 mg/kg i.p. at 1 hr after LPS inoculation; observed one week
# Method: To investigate the treatment effect during the process toward an advanced degree after the onset of sepsis, the effect of a test substance (Reference Example B1) by administration after LPS inoculation in an endotoxin shock model was investigated. […] The test substance was suspended in 0.5% aqueous methyl cellulose solution, and intraperitoneally inoculated (30 mg/kg) at 1 hr before, immediately after, 30 min after and 1 hr after LPS inoculation. The solvent was given to the control group at 1 hr before LPS inoculation.
# [12] = 10 mg/kg orally once a day for 7 days
# [13] = 30 mg/kg orally once a day for 7 days
smiles,measurement,setting,value
"CCOC(=O)C1=CCCCC1S(=O)(=O)Nc1ccc(F)cc1Cl (stereo not drawn) [Reference Example B26, ethyl 6-[N-(2-chloro-4-fluorophenyl)-sulfamoyl]-1-cyclohexene-1-carboxylate]",Suppressive rate (%) TNF-α,[1]; 1 μM,88%
same,Suppressive rate (%) TNF-α,[1]; 10 μM,100%
same,Suppressive rate (%) IL-6,[2]; 1 μM,93%
same,Suppressive rate (%) IL-6,[2]; 10 μM,96%
same,life-saving effect (survival),[3],clear life-saving effect
"CCOC(=O)C1=CCOCC1S(=O)(=O)Nc1ccc(F)cc1Cl (stereo not drawn) [Reference Example D7, ethyl 3-[(2-chloro-4-fluorophenyl)sulfamoyl]-3,6-dihydro-2H-pyran-4-carboxylate]",IC50,[4],> 1000 nM
same,IC50,[5],18 nM
same,IC50,[6],530 nM
"CCOC(=O)C1=CCCCC1S(=O)(=O)Cc1ccc(F)cc1Cl (stereo not drawn) [Reference Example D4, ethyl 6-[(2-chloro-4-fluorobenzyl)sulfonyl]-1-cyclohexene-1-carboxylate]",IC50,[4],> 1000 nM
same,IC50,[5],11 nM
same,IC50,[6],> 1000 nM
"CCOC(=O)C1=CCCC[C@H]1S(=O)(=O)Nc1ccc(F)cc1Cl [Reference Example B66, ethyl (6R)-6-[(2-chloro-4-fluoroanilino)sulfonyl]-1-cyclohexene-1-carboxylate]",IC50,[4],> 1000 nM
same,IC50,[5],10 nM
same,IC50,[6],> 1000 nM
same,life-saving effect (survival),[7],clear life-saving effect
"CCOC(=O)C1=CCCCC1S(=O)(=O)Nc1ccc(F)cc1F (stereo not drawn) [Reference Example B3, ethyl 6-[N-(2,4-difluorophenyl)sulfamoyl]-1-cyclohexene-1-carboxylate]",Suppressive rate (%) TNF-α,[1]; 1 μM,87%
same,Suppressive rate (%) TNF-α,[1]; 10 μM,97%
same,BW (%),[8]; [12],102.0 ± 7.1%
same,Hb,[8]; [12],13.2 ± 0.8 g/dL
same,Ht (%),[8]; [12],35.4 ± 2.7%
same,RBC,[8]; [12],607.5 ± 45.3 ×10^4/μL
same,WBC,[8]; [12],41.0 ± 4.1^+ ×10^2/μL
same,GBS (%) (grossly bloody stool),[8]; [12],83%
same,BW (%),[8]; [13],102.8 ± 7.9%
same,Hb,[8]; [13],12.9 ± 0.5 g/dL
same,Ht (%),[8]; [13],35.1 ± 2.7%
same,RBC,[8]; [13],616.7 ± 51.1 ×10^4/μL
same,WBC,[8]; [13],53.5 ± 7.8^+ ×10^2/μL
same,GBS (%) (grossly bloody stool),[8]; [13],67%
same,"changes in WBC, RBC, Hb and Ht induced by DSS",[8]; 10-30 mg/kg orally,"remarkably suppressed changes in WBC, RBC, Hb and Ht induced by DSS"
same,Suppressive rate (%) IL-6,[2]; 1 μM,100%
same,Suppressive rate (%) IL-6,[2]; 10 μM,100%
same,vascular thickening due to balloon injury (DNA content),[9],suppressed vascular thickening due to balloon injury in a dose-dependent manner
same,incidence and index of arthritis,[10]; 30 mg/kg orally,decreased the incidence and index of arthritis
same,Arthritis incidence (%),[10]; 6W,37.5%
same,Arthritis index,[10]; 6W,0.65
same,Arthritis incidence (%),[10]; 7W,40.0%
same,Arthritis index,[10]; 7W,0.80
same,Arthritis incidence (%),[10]; 8W,60.0%
same,Arthritis index,[10]; 8W,1.15
"CCOC(=O)C1=CCCCC1S(=O)(=O)Nc1ccc(Cl)cc1F (stereo not drawn) [Reference Example B1, ethyl 6-[N-(4-chloro-2-fluorophenyl)-sulfamoyl]-1-cyclohexene-1-carboxylate]",Suppressive rate (%) TNF-α,[1]; 1 μM,77%
same,Suppressive rate (%) TNF-α,[1]; 10 μM,99%
same,Suppressive rate (%) IL-6,[2]; 1 μM,80%
same,Suppressive rate (%) IL-6,[2]; 10 μM,100%
same,life-saving effect (survival),[11],clear life-saving effect
